From PubChem BioAssay (NCI) come the findings set out here.

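Test compounds were applied to cells in 96-well plates for 48 hours at 5 doses. Abbreviation: GI50, concentration required for 50% inhibition of growth. At the TGI there is no net growth.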 Where a SMILES comes first, the peptide text is derived from it. [ ]: non-standard residue; d: D form. The star is where a group is joined. ξ: configuration not given here. Propanoyl(3-(4-MeO-Ph)) = COc1ccc(CCC(=O)*)cc1; Thr(3ξ) = CC(O)[C@H](N)C(=O)O; dNMeL = CN[C@H](CC(C)C)C(=O)O; ξLac = CC(O)C(=O)O

Among the test systems are NCI/ADR-RES ovarian; MALME-3M melanoma; SN12C renal; UACC-257 melanoma; U251 CNS; HCC-2998 colon; RXF 393 renal; CAKI-1 renal; KM12 colon; SNB-19 CNS.
Holding throughout (test): NCI tumour cell line growth inhibition, 48 h

Take `COc1ccc(N2C(N)=C(C#N)C(C#N)(C#N)C2c2cccc([N+](=O)[O-])c2)cc1` (stereo not given): the TGI stood at 43.2 µM with NCI/ADR-RES ovarian; 16 µM in the assay on MALME-3M melanoma; 30.8 µM in the assay with SN12C renal; 27.6 µM in the assay on UACC-257 melanoma; 31.7 µM in the assay with U251 CNS; 31.8 µM in the assay with HCC-2998 colon. The TGI with RXF 393 renal was determined as 23.6 µM; in the assay on CAKI-1 renal, 23.4 µM; in the assay with KM12 colon it was 33.9 µM; in the assay with SNB-19 CNS, 32.5 µM.
Consider `COC(=O)C(Cc1ccccc1)NC(=O)c1ccc(CNC(=S)NCc2cccc(CNC(=S)NCc3ccccc3)c2)cc1` (stereo not given), for which the TGI in the assay on NCI/ADR-RES ovarian, in the assay on MALME-3M melanoma, in the assay on SN12C renal, in the assay with UACC-257 melanoma, in the assay with U251 CNS and with HCC-2998 colon was over 62.5 µM in each case. Further, the TGI in the assay with RXF 393 renal, in the assay with CAKI-1 renal, in the assay with KM12 colon and in the assay on SNB-19 CNS was over 62.5 µM throughout.
Take `Cn1cc(-c2nc(-c3c[nH]c4ccncc34)cs2)c2cc(F)ccc21`: the GI50 in the assay on NCI/ADR-RES ovarian was 1.93 µM; with MALME-3M melanoma, 1.57 µM; in the assay on SN12C renal it was 1.68 µM; in the assay on UACC-257 melanoma, 1.97 µM; with U251 CNS, 1.8 µM; with HCC-2998 colon, 1.64 µM. Also, the GI50 in the assay with RXF 393 renal is 1.57 µM; in the assay with CAKI-1 renal it was 1.65 µM; with KM12 colon it was 1.63 µM; in the assay on SNB-19 CNS, 1.83 µM. The TGI was 4.19 µM in the assay on NCI/ADR-RES ovarian; 3.06 µM in the assay on MALME-3M melanoma; 3.32 µM with SN12C renal; 3.56 µM in the assay with UACC-257 melanoma; 3.29 µM with U251 CNS; 3.08 µM with HCC-2998 colon. In addition, the TGI stood at 3.04 µM with RXF 393 renal, 3.04 µM in the assay on CAKI-1 renal, 3.11 µM in the assay on KM12 colon and 3.38 µM with SNB-19 CNS.
Turning to `CCOc1cc2c(cc1O)CC[C@@H]1[C@@H]2CC[C@]2(C)C(OS(=O)OC3CC[C@@H]4[C@H]5CCc6cc(O)c(OCC)cc6[C@@H]5CC[C@@]34C)CC[C@@H]12` (stereo not given in full), the TGI is 23.7 µM in the assay on NCI/ADR-RES ovarian; 13.4 µM with MALME-3M melanoma; 28.9 µM with SN12C renal; over 42.8 µM with UACC-257 melanoma; 1.4 µM in the assay with U251 CNS; 31.9 µM in the assay on HCC-2998 colon. Besides, the TGI was over 20.5 µM with RXF 393 renal, 26 µM with CAKI-1 renal, over 35.1 µM in the assay with KM12 colon and 30.4 µM in the assay with SNB-19 CNS.
Turning to `CCOC(=O)Cn1nnc2cc(Nc3nc4ccccc4nc3C(=O)OCC)ccc21`, the TGI in the assay with NCI/ADR-RES ovarian, in the assay with MALME-3M melanoma, in the assay with SN12C renal, with UACC-257 melanoma, with U251 CNS and in the assay on HCC-2998 colon was over 100 µM in each case. Moreover, the TGI in the assay with RXF 393 renal is 64.8 µM; in the assay on CAKI-1 renal, over 100 µM; in the assay with KM12 colon, over 100 µM; with SNB-19 CNS it was over 100 µM.
On to `C[C@H](CN1CC(=O)NC(=O)C1)N1CC(=O)NC(=O)C1`, for which the TGI with NCI/ADR-RES ovarian, with MALME-3M melanoma, in the assay on SN12C renal, in the assay on UACC-257 melanoma, in the assay on U251 CNS and with HCC-2998 colon was over 100 µM in each case. For the same compound, the TGI in the assay with RXF 393 renal, with CAKI-1 renal, in the assay on KM12 colon and in the assay with SNB-19 CNS was over 100 µM in each case.
Turning to `COc1cc([C@@H]2c3cc4c(cc3[C@@H](N=Cc3ccc(C(=O)O[C@@H](C(=O)O[C@H]5C[C@@]6(O)[C@@H](OC(=O)c7ccccc7)[C@@H]7[C@]8(OC(C)=O)CO[C@@H]8C[C@H](O)[C@@]7(C)C(=O)[C@H](OC(C)=O)C(=C5C)C6(C)C)[C@@H](NC(=O)c5ccccc5)c5ccccc5)cc3)[C@H]3COC(=O)[C@H]23)OCO4)cc(OC)c1O`, the TGI in the assay with NCI/ADR-RES ovarian is over 50 µM; in the assay on MALME-3M melanoma it was over 50 µM; with SN12C renal, over 50 µM; with UACC-257 melanoma, over 50 µM; in the assay on U251 CNS, over 16.9 µM; in the assay on HCC-2998 colon, 2.92 µM. Moreover, the TGI is over 31.1 µM in the assay on RXF 393 renal, over 50 µM with CAKI-1 renal, over 50 µM with KM12 colon and over 50 µM in the assay on SNB-19 CNS.
With `COc1nc2ccc(CNc3ccc(C(=O)O)cc3)cc2nc1OC`, the TGI in the assay on NCI/ADR-RES ovarian, with MALME-3M melanoma, in the assay on SN12C renal, in the assay on UACC-257 melanoma, with U251 CNS and in the assay with HCC-2998 colon was over 10 µM throughout. Further, the TGI with RXF 393 renal, in the assay on CAKI-1 renal, with KM12 colon and in the assay with SNB-19 CNS was over 10 µM each time.
Regarding `S=c1nc2sc3c(c2c(Nc2ccc(Br)cc2)[nH]1)CCN(N1CCc2c(sc4nc(=S)[nH]c(Nc5ccc(Br)cc5)c24)C1)C3`, the TGI was over 50 µM in the assay on NCI/ADR-RES ovarian; over 50 µM with MALME-3M melanoma; over 50 µM in the assay on SN12C renal; over 50 µM in the assay on UACC-257 melanoma; 19 µM with U251 CNS; over 50 µM in the assay with HCC-2998 colon. For the same compound, the TGI is 42.5 µM in the assay with RXF 393 renal, over 50 µM in the assay on CAKI-1 renal, over 50 µM in the assay on KM12 colon and over 50 µM in the assay on SNB-19 CNS.
In the case of `Cc1[nH]c(=O)nc2nc3ccc(Cl)cc3c(NC(C)(CO)CO)c12`, the TGI with NCI/ADR-RES ovarian, in the assay with MALME-3M melanoma, with SN12C renal, in the assay on UACC-257 melanoma, in the assay on U251 CNS and in the assay on HCC-2998 colon was over 100 µM each time. The TGI in the assay with RXF 393 renal was 88.8 µM; in the assay on CAKI-1 renal, over 100 µM; in the assay with KM12 colon, over 100 µM; in the assay with SNB-19 CNS, over 95.3 µM.
`COC(=O)[C@@H](NC(=O)[C@@H](CC(C)C)N(C)C(=O)[C@@H]1CCCN1C(=O)C(C)O)C(C)OC(=O)CCc1ccc(OC)cc1` (stereo not given in full) (H-[ξLac]P[dNMeL][Thr(3ξ)](Propanoyl(3-(4-MeO-Ph)))-OMe): the TGI in the assay on NCI/ADR-RES ovarian, in the assay with MALME-3M melanoma, in the assay with SN12C renal, with UACC-257 melanoma, in the assay with U251 CNS and in the assay with HCC-2998 colon was over 100 µM in each case. The TGI in the assay on RXF 393 renal, in the assay with CAKI-1 renal, in the assay with KM12 colon and in the assay with SNB-19 CNS was over 100 µM throughout.
